In US20220243210A1, “ANGIOTENSIN II TYPE 1 RECEPTOR TARGETED OLIGONUCLEOTIDES AND USES THEREOF” (Ionis Pharmaceuticals, Inc., priority 2019, published 2022):
pIC50: −log10 of the molar value.

Key:
mouse MALAT RNA = assay: MALAT RNA reduction in vivo, C57BL6/J mice, multiple dose; details: for ED50: IV day 0, 4, 8
Experimental: Compound Nos. 556089, 1229761, and 1229762 are described in Table 1 above. Compound Nos. 556089, 1229761, and 1229762 were tested in C57BL6/J mice. The mice were divided into groups of 4 mice each. […] The mice were then sacrificed on day 12. Heart, adipose, adrenal, kidney, and liver tissue was then collected and homogenized and RNA analysis was performed. A group of 4 mice received PBS as a negative control.
RNA was extracted from heart, adipose, adrenal, kidney, and liver tissue for real-time PCR analysis of measurement of RNA expression of MALAT using primer probe set mMALAT1 #2 (forward sequence […] (SEQ ID NO: 5); reverse sequence […] (SEQ ID NO: 6); probe sequence […] (SEQ ID NO: 7)). Results are presented as percent change of RNA, relative to PBS control, normalized to mouse GAPDH.

human MALAT1 RNA [1] = assay: MALAT1 RNA reduction in HEK-AGTR1 FAP cells, free uptake, 48 hours; assay type: cell-based; details: for MALAT (% control) / pIC50: 48 hours; for MALAT (% control): relative to untreated control cells; for pIC50: MALAT1 RNA, three parameter fit
Experimental: At the end of the treatment period, total RNA was isolated from the cells and MALAT1 RNA levels were measured by quantitative real-time PCR. […] MALAT1 RNA levels were normalized according to total RNA content, as measured by RIBOGREEN®. […] The half maximal inhibitory concentration (IC50) of each modified oligonucleotide was calculated using a non-linear fit [inhibitor] vs. response-variable slope (three parameters) formula in GraphPad Prism 7.01.

HEK-APLNR FAP cells = assay: IP1 accumulation negative control in HEK-APLNR FAP cells (do not express AGTR1); assay type: cell-based, human; details: 24 hours
Experimental: Activated AGTR1 couples to the Gαq subunit of heterotrimeric G proteins, which activates the phospholipase C (PLC) and subsequently inositol 1,4,5-trisphosphate (IP3) signaling cascade. AGTR1 signaling was measured using an IP-One Gq kit (cisbio #62IPAPEB). The kit detects the accumulation of inositol monophosphate (IP1), a stable downstream metabolite of IP3 induced by activation of a phospholipase C (PLC) cascade.
As a negative control, Compound Nos. 556089 and 1229761 were also tested in HEK293 cells expressing FAP tagged human Apelin receptor (HEK-APLNR FAP cells from Spectragenetics). […] HEK-APLNR FAP cells were cultured with Compound Nos. 556089 and 1229761, described herein above, at the concentrations detailed in Table 2 for 24 hours.

human MALAT1 RNA [2] = assay: MALAT1 RNA reduction in HEK-AGTR1 FAP cells, free uptake, 24 hours; assay type: cell-based; details: for MALAT (% control): relative to untreated control cells; for pIC50: MALAT1 RNA, four parameter fit
Experimental: At the end of the treatment period, total RNA was isolated from the cells and MALAT1 RNA levels were measured by quantitative real-time PC&. […] MALAT1 RNA levels were normalized according to total RNA content, as measured by RIBOGREEN®. Reduction of MALAT1 RNA is presented Table 3 below as percent MALAT1 RNA amount relative to untreated control (UTC) cells. The half maximal inhibitory concentration (IC50) of each modified oligonucleotide was calculated using a non-linear fit [inhibitor] vs. response—variable slope (four parameters) formula in GraphPad Prism 7.01.

[3] = Adipose, 0.4 μmol/kg IV day 0, 4, 8, sacrifice day 12, relative to PBS
[4] = Adipose, 1.2 μmol/kg IV day 0, 4, 8, sacrifice day 12, relative to PBS
[5] = Adipose, 3.6 μmol/kg IV day 0, 4, 8, sacrifice day 12, relative to PBS
[6] = Adrenal, 0.4 μmol/kg IV day 0, 4, 8, sacrifice day 12, relative to PBS
[7] = Adrenal, 1.2 μmol/kg IV day 0, 4, 8, sacrifice day 12, relative to PBS
[8] = Adrenal, 3.6 μmol/kg IV day 0, 4, 8, sacrifice day 12, relative to PBS
[9] = Heart, 0.4 μmol/kg IV day 0, 4, 8, sacrifice day 12, relative to PBS
[10] = Heart, 1.2 μmol/kg IV day 0, 4, 8, sacrifice day 12, relative to PBS
[11] = Heart, 3.6 μmol/kg IV day 0, 4, 8, sacrifice day 12, relative to PBS
[12] = Kidney, 0.4 μmol/kg IV day 0, 4, 8, sacrifice day 12, relative to PBS
[13] = Kidney, 1.2 μmol/kg IV day 0, 4, 8, sacrifice day 12, relative to PBS
[14] = Kidney, 3.6 μmol/kg IV day 0, 4, 8, sacrifice day 12, relative to PBS
[15] = Liver, 0.4 μmol/kg IV day 0, 4, 8, sacrifice day 12, relative to PBS
[16] = Liver, 1.2 μmol/kg IV day 0, 4, 8, sacrifice day 12, relative to PBS
[17] = Liver, 3.6 μmol/kg IV day 0, 4, 8, sacrifice day 12, relative to PBS

Compound No. 1229761: Angiotensin II peptide [N6-(2-azidoacetyl)-K]DRVYIHPF conjugated via linker to 5′-end of MALAT1 modified oligonucleotide TCAGCATTCTAATAGCAGC
MALAT-1 RNA (% control) (mouse MALAT RNA; [3]): 66.2 % control
MALAT-1 RNA (% control) (mouse MALAT RNA; [4]): 33.0 % control
MALAT-1 RNA (% control) (mouse MALAT RNA; [5]): 15.5 % control
ED50 (mouse MALAT RNA; Adipose): 0.1 µmol/kg
MALAT-1 RNA (% control) (mouse MALAT RNA; [6]): 90.3 % control
MALAT-1 RNA (% control) (mouse MALAT RNA; [7]): 59.7 % control
MALAT-1 RNA (% control) (mouse MALAT RNA; [8]): 41.5 % control
ED50 (mouse MALAT RNA; Adrenal): 1.091 µmol/kg
MALAT-1 RNA (% control) (mouse MALAT RNA; [9]): 82.3 % control
MALAT-1 RNA (% control) (mouse MALAT RNA; [10]): 68.7 % control
MALAT-1 RNA (% control) (mouse MALAT RNA; [11]): 31.7 % control
ED50 (mouse MALAT RNA; Heart): 2.686 µmol/kg
MALAT-1 RNA (% control) (mouse MALAT RNA; [12]): 53.8 % control
MALAT-1 RNA (% control) (mouse MALAT RNA; [13]): 39.6 % control
MALAT-1 RNA (% control) (mouse MALAT RNA; [14]): 21.4 % control
ED50 (mouse MALAT RNA; Kidney): 1.88 µmol/kg
MALAT-1 RNA (% control) (mouse MALAT RNA; [15]): 34.7 % control
MALAT-1 RNA (% control) (mouse MALAT RNA; [16]): 12 % control
MALAT-1 RNA (% control) (mouse MALAT RNA; [17]): 5.7 % control
ED50 (mouse MALAT RNA; Liver): 0.063 µmol/kg
MALAT (% control) (human MALAT1 RNA [1]; 2.7 nM): 94 % control
MALAT (% control) (human MALAT1 RNA [1]; 8.2 nM): 98 % control
MALAT (% control) (human MALAT1 RNA [1]; 24.7 nM): 92 % control
MALAT (% control) (human MALAT1 RNA [1]; 74.1 nM): 85 % control
MALAT (% control) (human MALAT1 RNA [1]; 222.2 nM): 53 % control
MALAT (% control) (human MALAT1 RNA [1]; 666.7 nM): 26 % control
MALAT (% control) (human MALAT1 RNA [1]; 2000 nM): 18 % control
MALAT (% control) (human MALAT1 RNA [1]; 6000 nM): 16 % control
MALAT (% control) (human MALAT1 RNA [1]; .10 nM): 85 % control
MALAT (% control) (human MALAT1 RNA [1]; .3 nM): 99 % control
MALAT (% control) (human MALAT1 RNA [1]; .9 nM): 91 % control
pIC50 (human MALAT1 RNA [1]): 6.54
reduction of target RNA in words (human MALAT1 RNA [1]; compared to parent unconjugated Compound No. 556089, 48 hours): significantly greater reduction of target RNA
IP1 accumulation (HEK-APLNR FAP cells; 0.0256 nM): 590 nM
IP1 accumulation (HEK-APLNR FAP cells; 0.128 nM): 477 nM
IP1 accumulation (HEK-APLNR FAP cells; 0.64 nM): 564 nM
IP1 accumulation (HEK-APLNR FAP cells; 3.2 nM): 510 nM
IP1 accumulation (HEK-APLNR FAP cells; 16 nM): 505 nM
IP1 accumulation (HEK-APLNR FAP cells; 80 nM): 492 nM
IP1 accumulation (HEK-APLNR FAP cells; 400 nM): 425 nM
IP1 accumulation (HEK-APLNR FAP cells; 2000 nM): 472 nM
MALAT (% control) (human MALAT1 RNA [2]; 12 nM, 24 hours): 126 % control
MALAT (% control) (human MALAT1 RNA [2]; 111 nM, 24 hours): 76 % control
MALAT (% control) (human MALAT1 RNA [2]; 333 nM, 24 hours): 63 % control
MALAT (% control) (human MALAT1 RNA [2]; 1000 nM, 24 hours): 67 % control
MALAT (% control) (human MALAT1 RNA [2]; 3000 nM, 24 hours): 36 % control
MALAT (% control) (human MALAT1 RNA [2]; 9000 nM, 24 hours): 33 % control
pIC50 (human MALAT1 RNA [2]; 24 hours): 6.74
reduction of target RNA in words (human MALAT1 RNA [2]; compared to parent unconjugated Compound No. 556089, 24 hours): significantly greater reduction of target RNA

Compound No. 1229762: Extended Angiotensin II peptide [N6-(2-azidoacetyl)-K]PPPAGSSPGDRVYIHPF conjugated via linker to 5′-end of MALAT1 modified oligonucleotide TCAGCATTCTAATAGCAGC
MALAT-1 RNA (% control) (mouse MALAT RNA; [3]): 58.3 % control
MALAT-1 RNA (% control) (mouse MALAT RNA; [4]): 40.1 % control
MALAT-1 RNA (% control) (mouse MALAT RNA; [5]): 20.5 % control
ED50 (mouse MALAT RNA; Adipose): 1.385 µmol/kg
MALAT-1 RNA (% control) (mouse MALAT RNA; [6]): 87.8 % control
MALAT-1 RNA (% control) (mouse MALAT RNA; [7]): 66.5 % control
MALAT-1 RNA (% control) (mouse MALAT RNA; [8]): 45.2 % control
ED50 (mouse MALAT RNA; Adrenal): 1.2 µmol/kg
MALAT-1 RNA (% control) (mouse MALAT RNA; [9]): 86.2 % control
MALAT-1 RNA (% control) (mouse MALAT RNA; [10]): 73.4 % control
MALAT-1 RNA (% control) (mouse MALAT RNA; [11]): 40 % control
ED50 (mouse MALAT RNA; Heart): 3.14 µmol/kg
MALAT-1 RNA (% control) (mouse MALAT RNA; [12]): 50.6 % control
MALAT-1 RNA (% control) (mouse MALAT RNA; [13]): 43.8 % control
MALAT-1 RNA (% control) (mouse MALAT RNA; [14]): 22.4 % control
ED50 (mouse MALAT RNA; Kidney): 3.084 µmol/kg
MALAT-1 RNA (% control) (mouse MALAT RNA; [15]): 40.5 % control
MALAT-1 RNA (% control) (mouse MALAT RNA; [16]): 15.1 % control
MALAT-1 RNA (% control) (mouse MALAT RNA; [17]): 5.7 % control
ED50 (mouse MALAT RNA; Liver): 0.085 µmol/kg
MALAT (% control) (human MALAT1 RNA [1]; 2.7 nM): 100 % control
MALAT (% control) (human MALAT1 RNA [1]; 8.2 nM): 80 % control
MALAT (% control) (human MALAT1 RNA [1]; 24.7 nM): 69 % control
MALAT (% control) (human MALAT1 RNA [1]; 74.1 nM): 66 % control
MALAT (% control) (human MALAT1 RNA [1]; 222.2 nM): 42 % control
MALAT (% control) (human MALAT1 RNA [1]; 666.7 nM): 16 % control
MALAT (% control) (human MALAT1 RNA [1]; 2000 nM): 12 % control
MALAT (% control) (human MALAT1 RNA [1]; 6000 nM): 9 % control
MALAT (% control) (human MALAT1 RNA [1]; .10 nM): 103 % control
MALAT (% control) (human MALAT1 RNA [1]; .3 nM): 106 % control
MALAT (% control) (human MALAT1 RNA [1]; .9 nM): 101 % control
pIC50 (human MALAT1 RNA [1]): 6.90
IP1 accumulation (HEK-APLNR FAP cells; 0.0256 nM): 723 nM
IP1 accumulation (HEK-APLNR FAP cells; 0.128 nM): 634 nM
IP1 accumulation (HEK-APLNR FAP cells; 0.64 nM): 679 nM
IP1 accumulation (HEK-APLNR FAP cells; 3.2 nM): 596 nM
IP1 accumulation (HEK-APLNR FAP cells; 16 nM): 526 nM
IP1 accumulation (HEK-APLNR FAP cells; 80 nM): 517 nM
IP1 accumulation (HEK-APLNR FAP cells; 400 nM): 609 nM
IP1 accumulation (HEK-APLNR FAP cells; 2000 nM): 576 nM
MALAT (% control) (human MALAT1 RNA [2]; 12 nM, 24 hours): 105 % control
MALAT (% control) (human MALAT1 RNA [2]; 37 nM, 24 hours): 90 % control
MALAT (% control) (human MALAT1 RNA [2]; 111 nM, 24 hours): 59 % control
MALAT (% control) (human MALAT1 RNA [2]; 333 nM, 24 hours): 36 % control
MALAT (% control) (human MALAT1 RNA [2]; 1000 nM, 24 hours): 41 % control
MALAT (% control) (human MALAT1 RNA [2]; 3000 nM, 24 hours): 22 % control
MALAT (% control) (human MALAT1 RNA [2]; 9000 nM, 24 hours): 24 % control
pIC50 (human MALAT1 RNA [2]; 24 hours): 7.00
improvement in target knockdown in words (human MALAT1 RNA [2]; among compounds tested, 24 hours): greatest improvement in target knockdown
